The values below are quoted from earlier work in US8288116B2, “Methods and compositions for isolating metastatic cancer cells, and use in measuring metastatic potential of a cancer thereof” (The Research Foundation of State University of New York, priority 2000, dated 2012).

This series concerns patients with cancer. As to conditions: trials in patients with cancer.
On to `CC1(C)SCCN(S(=O)(=O)c2ccc(Oc3ccncc3)cc2)[C@H]1C(=O)NO` [AG3340], for which the “anti-metastatic, anti-invasive effects” value is “not produced obvious evidence”.
As to `CNC(=O)[C@@H](NC(=O)[C@H](CC(C)C)[C@H](O)C(=O)NO)C(C)(C)C` [Marimastat], the “anti-metastatic, anti-invasive effects” value is on record as “not produced obvious evidence”.
On to angiostatin, for which the “anti-metastatic, anti-invasive effects” value was “not produced obvious evidence”.
In the case of endostatin, the “anti-metastatic, anti-invasive effects” value was “not produced obvious evidence”.
